Experimental data reported in PubChem BioAssay (NCI).
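1) Cells in 96-well plates. 2) Compound, 48 h, 5 concentrations. 3) Linear interpolation between surrounding doses. 4) Unreached endpoint = highest concentration. TGI is the concentration that stops growth completely.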

Columns and labels:
Assay in all cases: NCI anticancer screen, dose series, 48 h
SK-MEL-5 melanoma = tested on: SK-MEL-5 melanoma
LOX IMVI melanoma = tested on: LOX IMVI melanoma
NCI/ADR-RES ovarian = tested on: NCI/ADR-RES ovarian
MDA-MB-435 = tested on: MDA-MB-435
NCI-H226 lung = tested on: NCI-H226 lung
UACC-257 melanoma = tested on: UACC-257 melanoma
SNB-75 CNS = tested on: SNB-75 CNS
SN12C renal = tested on: SN12C renal
SK-MEL-28 melanoma = tested on: SK-MEL-28 melanoma
RXF 393 renal = tested on: RXF 393 renal

Structure (SMILES) | TGI (SK-MEL-5 melanoma) [µM] | TGI (LOX IMVI melanoma) [µM] | TGI (NCI/ADR-RES ovarian) [µM] | TGI (MDA-MB-435) [µM] | TGI (NCI-H226 lung) [µM] | TGI (UACC-257 melanoma) [µM] | TGI (SNB-75 CNS) [µM] | TGI (SN12C renal) [µM] | TGI (SK-MEL-28 melanoma) [µM] | TGI (RXF 393 renal) [µM]
CC(=O)OCC1OC(n2c(N)c(C#N)c(-c3ccccc3)c(C#N)c2=S)C(OC(C)=O)C(OC(C)=O)C1OC(C)=O (stereo not given) | > 100 | > 100 | > 100 | > 100 | > 100 | > 100 | 30 | > 100 | > 100 | > 70.5
CC[N+]1(C)CCC(O)(c2ccc(Cl)cc2)C(C(=O)c2ccc(Cl)cc2)C1 (stereo not given) | – | 25.6 | 57.1 | 40.6 | 48.3 | 61 | – | 37.5 | 29.4 | 27.4
Cc1c(-c2cc3n(n2)C(c2cccs2)C(C#N)=C(c2ccccc2)N3)c(=O)n(-c2ccccc2)n1C (stereo not given) | > 85.8 | > 100 | > 100 | – | > 100 | 98.7 | > 100 | > 100 | > 100 | > 100
COc1ccc(Cc2nc3cc(C(F)(F)F)ccc3n2CCCN(C)C)cc1 | 30.1 | 40 | 45.2 | 29.7 | > 100 | 33.2 | – | – | 34.6 | 29.2
C=C1c2c(cc3c(c2O)c(=O)c2ccccc2n3C)OC1(C)C | > 100 | > 100 | – | – | > 100 | – | 42 | > 100 | > 100 | –
O=C1NC2(CCCCC2)N=C2C(Cl)CCCC12Cl (stereo not given) | > 100 | > 100 | > 100 | > 100 | > 100 | – | > 100 | > 100 | > 100 | > 100
Cc1nc2c(o1)C(=O)c1ccccc1/C2=N/c1ccccn1 | 30.4 | 39.9 | 56.9 | 31.9 | – | 26.9 | 20.9 | 64.1 | 32.8 | > 100
CC(C)OP(=O)(CN(C)/C(F)=N\C(F)(F)F)OC(C)C | > 100 | > 100 | > 100 | > 100 | > 100 | > 100 | > 100 | > 100 | > 100 | > 100
N#Cc1[nH]c(=O)n(-c2ccc(Cl)cc2)c1N | > 10 | > 10 | > 10 | > 10 | > 10 | > 10 | – | > 10 | > 10 | > 10
O=P(O)(O)C(O)/C=C/c1ccccc1 (stereo not given) | > 100 | > 100 | > 100 | > 100 | > 100 | > 100 | > 100 | > 100 | > 100 | > 100
CCOc1ccc2c(c1)/C(=C(\C(Cl)=C(Cl)Cl)[N+](=O)[O-])N2 | – | – | > 100 | > 100 | > 100 | > 100 | > 100 | > 100 | > 100 | –
Cc1cccc(Nc2cn(COCc3ccccc3)c(=O)[nH]c2=O)c1 | > 100 | > 100 | 90 | > 100 | – | > 100 | – | > 100 | > 100 | > 100
Cc1csc2nc(-c3ccc([N+](=O)[O-])cc3)c(/C=N/N=C(N)N)n12 | 3.96 | 3.63 | > 50.8 | 3.16 | – | 3.05 | 2.97 | 3.28 | 3.23 | 3.45
CCc1n[nH]c(=O)n1N1C(=O)C2CC=CCC2C1=O (stereo not given) | > 100 | > 100 | > 100 | > 100 | > 100 | > 100 | > 100 | > 100 | – | > 100
CC1CCCC2=C1C(c1ccc(Cl)cc1)n1c(s/c(=C\c3ccc(Cl)cc3)c1=O)=N2 (stereo not given) | > 100 | > 100 | – | > 100 | – | > 100 | > 100 | > 100 | > 100 | > 100
Cc1ccc(/C=C/C(=O)c2c([O-])on[n+]2-c2ccccc2)cc1 | > 32.5 | 3.74 | 7.11 | – | > 45.6 | 16 | 4.87 | 31.3 | 5.75 | 3.65
O=C1c2ccccc2-c2nc(-c3cccnc3)cc3c2c1nc1ccccc13 | – | > 100 | > 100 | 34.7 | > 100 | > 100 | > 100 | > 100 | > 100 | –
CCC1CC2CN3CCc4c([nH]c5c(-c6c(OC)ccc7c8c([nH]c67)[C@]6(C(=O)OC)CC7CC(CC)C6N(CC8)C7)c(O)ccc45)[C@](C(=O)OC)(C2)C13 (stereo not given in full) | 27.4 | 28 | 53.9 | 23.6 | 22 | 47.2 | 48.8 | – | 29.9 | 26.8
NC(=O)CCC(NCc1c2ccccc2[n+]([O-])c2ccccc12)C(=O)O (stereo not given) | > 100 | > 100 | – | – | > 100 | > 100 | > 100 | > 100 | > 100 | –
CC(C)(C)[Si](C)(C)OCCCC#CCO | > 100 | > 100 | – | – | – | > 100 | > 100 | > 100 | > 100 | > 100
O=C(c1cc(Cl)cc(Cl)c1)N(C(=S)OC12CC3CC(CC(C3)C1)C2)c1ccccc1 | > 100 | – | > 100 | > 100 | > 100 | > 100 | > 100 | > 100 | > 100 | > 100
O=C1C2C=CC1C1C(=O)OC(=O)C21 (stereo not given) | > 100 | > 100 | > 100 | > 100 | > 100 | > 100 | > 100 | > 100 | > 100 | –
COc1cc(N=NN(C)C)c(C(C)c2c3cc(OC)c(OC)cc3cc[n+]2C)cc1OC (stereo not given) | 56.8 | > 100 | > 100 | > 100 | > 100 | > 100 | > 100 | > 100 | – | > 100
O=C1c2cc3ccccc3cc2C2(c3ccc(Cl)cc3)N[C@H]3CCCC[C@@H]3N12 (stereo not given in full) | 42.8 | 55.8 | 41.6 | 93 | – | 48 | 37.5 | 43.8 | 28.1 | 24.2
